The values that follow come from patent US9655965B2, “Radiosensitizer compounds for use in combination with radiation” (priority 2013, dated 2017).

The subject of the experiment is cisplatin-resistant human lung cancer (HTB-161) cells. Nature of the experiment: In vitro radiosensitizing effect, 18-day clonogenic assay. As to conditions: HTB-161, 12-hr treatment, 0-10 Gy 225 keV X-ray. It counts as cell-based. The text has this:
Dibromo-diamino-benzene (Dibromo-phenylenediamine, Compound B) was obtained from TCI—America. Diiodo-diaminobenzene (Compound C) were synthesized, purified and crystallized in our laboratory, and the structures and purity were examined by NMR and mass spectrometry. MEM and fetal bovine serum (FBS), penicillin G and streptomycin were obtained from Hyclone Laboratories (UT, USA). Stock solution of cisplatin was freshly prepared in ultrapure water or saline, and stock solutions of Compounds A, B, C, D were prepared in pure ethanol, where the final concentration of ethanol was ≦1% when treated to cells.
A human skin diploid fibroblast (GM05757 cell line) was obtained from the Coriell Cell Repository directly, while the human cervical cancer cell line (HeLa, ATCC#: CCL-2; or ME-180), human ovarian cancer cell line (NIH:OVCAR-3, ATCC#: HTB-161) and human lung cancer cell line (A549, ATCC#: CCL-185™), together with RPMI 1640, F-12K, McCoy's 5 A and L-15 culture media, were obtained from the American Type Culture Collection (ATCC) directly. Fetal bovine serum (FBS) was obtained from Hyclone Laboratories (UT, USA). The GM05757 normal cells and HeLa cells were cultivated with MEM (Hyclone) supplemented with 10% FBS, 100 units/mL penicillin G and 100 μg/mL streptomycin (Hyclone). […]

SMILES strings stand for the structures.

With `Nc1cc(Br)c(Br)cc1N` [Compound B, 4,5-dibromo-1,2-phenylenediamine], the “enhancement of radiosensitivity of cisplatin-resistant cancer cells to X-ray” value was “significant enhancement in the radiosensitivity”.
